Experimental data from US12558312B2, “Solid dosage form for transmucosal drug delivery” (Primo Pharmatech LLC, priority 2020, dated 2026).
Structures can show the parent of a compound that is named as a salt.

Test: In-vitro permeation testing with a Franz Cell Diffusion System
Method: In-vitro Permeation testing was performed for the dosage forms in Table 8 with a Franz Cell Diffusion System. The receiving chamber was filled in water solution and stirred with magnetic bar. Fix the PermeaPad® Barrier membrane at the surface. The PermeaPad® Barrier consists of two cellulose membranes and in between there is a Lipid layer Lecithine (S-100). Place the donating chamber onto the receiving chamber and effectively sandwich the membrane. Add 5 mg of the film prepared in Table 8 into the donating chamber and introduce 1 ml of water to dissolve the film. Start the timer for the experiment.
Permeability (P, cm/h), in general within first 8 hours, is defined as the rate of flow of liquid through the membrane.
The similar procedure was performed for the other APIs with a molecule weight ranging from 100 to 6000 g/mol.

Row | Compound | Pemeability (cm/h) via PermeaPad Biomimetic Membrane in vitro (HLB9.0) | Pemeability (cm/h) via PermeaPad Biomimetic Membrane in vitro (HLB15) [cm/h] | Pemeability (cm/h) via PermeaPad Biomimetic Membrane in vitro (no enhancers) | Pemeability (cm/h) via PermeaPad Biomimetic Membrane in vitro (HLB4.3) | Pemeability (cm/h) via PermeaPad Biomimetic Membrane in vitro (HLB9.4) | Pemeability (cm/h) via PermeaPad Biomimetic Membrane in vitro (enhancer condition not stated)
1 | CN1CCc2cccc3c2[C@H]1Cc1ccc(O)c(O)c1-3 [Apomorphine HCL] | (HLB15), 2.73 (HLB9.0) cm/h | 1.87 | 0.413 cm/h |  |  | 
2 | NC(=O)c1ccc[n+]([C@@H]2O[C@H](COP(=O)([O-])O)[C@@H](O)[C@H]2O)c1 [Beta-nicotinamide mononucleotide, NMN, Beta-nicotinamide mononucleotide] |  |  | 0.23 (No enhancers), cm/h | 0.23 (HLB4.3), cm/h | 0.38 (HLB9.4) cm/h | 
3 | CC[C@H](C)[C@H](NC(=O)[C@H](CCC(=O)O)NC(=O)[C@H](CCC(=O)O)NC(=O)[C@H](Cc1ccccc1)NC(=O)[C@H](CC(=O)O)NC(=O)CNC(=O)[C@H](CC(N)=O)NC(=O)CNC(=O)CNC(=O)CNC(=O)CNC(=O)[C@@H]1CCCN1C(=O)[C@H](CCCNC(=N)N)NC(=O)[C@@H]1CCCN1C(=O)[C@H](N)Cc1ccccc1)C(=O)N1CCC[C@H]1C(=O)N[C@@H](CCC(=O)O)C(=O)N[C@@H](CCC(=O)O)C(=O)N[C@@H](Cc1ccc(O)cc1)C(=O)N[C@@H](CC(C)C)C(=O)O [Bivalirudin Peptide, Bivalirudin] |  |  |  |  |  | Un-detectable
4 | Cn1c(=O)c2c(ncn2C)n(C)c1=O [Caffeine] |  | 5.01 | 0.277 cm/h |  | (HLB15), 7.76 (HLB9.4) cm/h | 
5 | Insulin |  |  |  |  |  | Un-detectable
